# Assay results as given in US11369585B2, “Compositions, methods, systems and/or kits for preventing and/or treating neoplasms” (Research Cancer Institute of America, priority 2017, dated 2022).
# Assays:
# [1] = tested on: cfDNA somatic alterations; assay: Case study 3: Guardant360 % cfDNA with somatic alterations; assay type: in vivo, human; conditions: Lynparza alone
# Description: Therefore, clinical correlation is advised.
# (§1) After two weeks of epigenetic therapies, his VEGF decreased from 248 to 70.
# For example, KRAS mutant allele frequency (MAF) decreased from over 50 percent to 5.6, TP53 decreased from over 50 percent down to 5.1 percent (FIG. 19).
# [2] = tested on: stage four pancreatic cancer; assay: Case study 3: laboratory tests (VEGF, IL-8, TGF, CA 19.9); assay type: in vivo, human; conditions: two months without epigenetic therapies, Lynparza continued; increased from 8565
# Description: (§2) This is a case study of a person with history of stage four pancreatic cancer who was diagnosed after abdominal pain, with adenocarcinoma of pancreas metastasized to their liver. They had explored all potential therapies and their oncologist had given them less than 3 months to live and had referred them to hospice.
# They were immediately started on daily IV epigenetic therapies in combination with PARP inhibitors, which they received for two weeks after which their laboratory tests were repeated.
# as §1
# (§3) Thus, Lynparza alone was not sufficient to retard tumor growth. Upon their return to the clinic, their tumor marker CA 19.9 was analyzed.
# [3] = tested on: adenocarcinoma of pancreas metastasized to liver; assay: Case study 3: clinical course; assay type: in vivo, human; conditions: epigenetic therapies stopped, Lynparza continued
# Description: as §2
# They were able to walk again independently. They started to do clinically well. […] Edema in their lower extremities improved.
# as §3
# [4] = cited from earlier work
# glioma cells = conditions: cited from earlier work
# [5] = tested on: serous ovarian carcinoma lesions; assay: Case study 2: whole body PET scan and abdominal CT scan restaging; conditions: Niraparib 300 mg daily only
# [6] = tested on: triple negative breast cancer; conditions: cited from earlier work
# [7] = abdominal CT about one month after stopping epigenetic therapies, from 16 mm
smiles,measurement,setting,value
O=C(c1cc(Cc2n[nH]c(=O)c3ccccc23)ccc1F)N1CCN(C(=O)C2CC2)CC1 [Lynparza],"cfDNA gene alterations (FGF2, C Myc, EGFR, PI3K, CDK4, CDK6, NF-1, KIT, TP53, PDGF, KRAS, BRCA1)",[1],did not change
same,tumor marker CA 19.9,[2],45988
same,disease course,[3],their disease progressed
O=c1c(O)c(-c2ccc(O)c(O)c2)oc2cc(O)cc(O)c12 [quercetin],water solubility,[4],not water soluble
same,effect on angiogenesis,glioma cells,suppression of angiogenesis
NC(=O)c1cccc2cn(-c3ccc([C@@H]4CCCNC4)cc3)nc12 [Niraparib],abdominal mesenteric artery LN size,[5]; [7],28 mm
same,retroperitoneal node size,[5]; [7],21 mm
same,periaortic nodes size,"[5]; abdominal CT about one month after stopping epigenetic therapies, from 24 mm",32 mm
same,overall response on abdominal CT scan,[5]; about one month after stopping epigenetic therapies,mixed response with progression
NC(=O)c1ccc(I)c([N+](=O)[O-])c1 [Iniparib],phase II trial outcome,[6]; in vivo,promising results
same,survival in phase III trial,[6]; patients also received cytotoxic chemotherapy,no improvement in survival
